According to patent US20070276034A1, “Compounds, compositions and methods for the treatment of synucleinopathies” (priority 2002, published 2007):
Where two headings read alike, the source gives them in different places.

Experiments:
Format in all cases: biochemical
IAPP fibrils [1] = target: T1, IAPP fibrils (Homo sapiens, UniProt P10997); assay: Thioflavin T fluorometry - disruption of type 2 diabetes IAPP fibrils; settings: 25 μM pre-fibrillized IAPP, 37° C., 3 days; for inhibition: read-out: % Inhibition IAPP (result ± S.D.)
T1 construct: purchased Bachem Inc
T1 sequence (P10997 34-70 limits assumed): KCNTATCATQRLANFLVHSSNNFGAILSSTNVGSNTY
Procedure: In this assay Thioflavin T binds specifically to fibrillar amyloid, and this binding produces a fluorescence enhancement at 485 nm that is directly proportional to the amount of IAPP fibrils present. The higher the fluorescence, the greater the amount of IAPP fibrils present (Naki et al, Lab. Invest. 65:104-110, 1991; Levine III, Protein Sci. 2:404-410, 1993; Amyloid: Int. J. Exp. Clin. Invest. 2:1-6, 1995).
(§1) In this study, 25 μM of pre-fibrillized IAPP (Bachem Inc) was incubated at 37° C. for 3 days either alone, or in the presence of one of the compounds or EDTA (at IAPP:test compound weight ratios of 1:1, 1:0.1, 1:0.01 or 1:0.001). Following 3-days of co-incubation, 50 μl of each incubation mixture was transferred into a 96-well microtiter plate containing 150 μl of distilled water and 50 μl of a Thioflavin T solution (i.e. 500 mM Thioflavin T in 250 mM phosphate buffer, pH 6.8). The fluorescence was read at 485 nm (444 nm excitation wavelength) using an ELISA plate fluorometer after subtraction with buffer alone or compound alone, as blank.

IAPP fibrils [2] = target: T1, IAPP fibrils; assay: Congo red binding assay with IAPP fibrils; settings: 3-day incubation
Procedure: (§2) In the Congo red binding assay the ability of a given test compound to alter amyloid (in this case, IAPP) binding to Congo red is quantified. In this assay, IAPP and test compounds were incubated for 3 days and then vacuum filtered through a 0.2 μm filter. The amount of IAPP retained in the filter was then quantitated following staining of the filter with Congo red. After appropriate washing of the filter, any lowering of the Congo red color on the filter in the presence of the test compound (compared to the Congo red staining of the amyloid protein in the absence of the test compound) was indicative of the test compound's ability to diminish/alter the amount of aggregated and congophilic IAPP.
In the study, the ability of IAPP fibrils to bind Congo red in the absence or presence of increasing amounts of the compounds or EDTA (at IAPP:test compound weight ratios of 1:1, 1:0.1, 1:0.01 or 1:0.001) was determined.

Aβ 1-42 fibrils [3] = target: T2, Aβ 1-42 fibrils (Homo sapiens, UniProt P05067); assay: Thioflavin T fluorometry - disruption of pre-formed Aβ 1-42 Alzheimer's fibrils; settings: 25 μM pre-fibrillized Aβ 1-42, 37° C., 3 days; for inhibition: read-out: % Inhibition Aβ (result ± S.D.)
T2 construct: purchased Bachem Inc
T2 sequence (P05067 672-713): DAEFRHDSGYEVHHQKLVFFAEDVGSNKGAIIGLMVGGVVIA
Description: In one study, Thioflavin T fluorometry was used to determine the effects of the compounds, and of EDTA (as a negative control). In this assay Thioflavin T binds specifically to fibrillar amyloid, and this binding produces a fluorescence enhancement at 485 nm that is directly proportional to the amount of amyloid fibrils formed. The higher the fluorescence, the greater the amount of amyloid fibrils formed (Naki et al., Lab. Invest. 65:104-110, 1991; Levine III, Protein Sci. 2:404-410, 1993; Amyloid: Int. J. Exp. Clin. Invest. 2:1-6, 1995).
as §1, with “Aβ 1-42” for “IAPP”, “Aβ:test” for “IAPP:test”

Aβ 1-42 fibrils [4] = target: T2, Aβ 1-42 fibrils; assay: Circular dichroism spectroscopy of Aβ 1-42 fibrils; settings: for disruption of β-sheet structure in Aβ 1-42 fibrils (CD minima at 218 nm): 3 days co-incubation, 25 μM Aβ 1-42 (FIG. 1, FIG. 2); for dose-response of disruption of β-sheet structure of Aβ 1-42 fibrils (CD minima at 218 nm): Aβ:test compound wt/wt ratios of 1:0.1, 1:1 and 1:10 (FIG. 3)
Procedure: Circular dichroism (CD) spectroscopy is a method that can be used to determine the effects of test compounds to disrupt the secondary structure conformation of amyloid fibrils. In one study, as described in this example, circular dichroism spectroscopy was used to determine the effects of different compounds of the invention on β-sheet conformation of Aβ 1-42 fibrils. For this study, Aβ 1-42 (Bachem Inc., Torrance, Calif.) was first dissolved in a 2 mM NaOH solution, maintaining the pH of these solutions above 10. […] Aβ 1-42 was then incubated at 37° C. in the absence or presence of different compounds at an Aβ:test compound wt/wt ratios of 1:0.1, 1:1 and 1:10. After 3 days of incubation, CD spectra were recorded on a Jasco 810 spectropolarimeter (Easton, Md.). All CD spectra were collected with 0.05 cm quartz cells. Wavelength traces were scanned from 190-260 nm at 0.5 nm increments with a bandwidth of 5 nm, at a scan speed of 10 nm/minute, a response time of 32 seconds, and a data pitch of 0.5 nm. The whole system was equilibrated and continuously flushed with nitrogen at 10 ml/minute. […] Ellipticity in degrees was converted to MRE ([Q]; molar residue ellipticity) using the formula [Q]=100•[…]; where Q is the ellipticity in degrees; […]

monomeric Aβ 1-42 = target: T3, monomeric Aβ 1-42 (Homo sapiens, UniProt P05067); assay: SDS-PAGE/Western blot of Aβ 1-42 after incubation with compounds; settings: 25 μM pre-fibrillized Aβ 1-42, 37° C., 3 days, 0.2 μm filtrate, antibody 6E10
T3 construct: purchased Bachem Inc
T3 sequence (P05067 672-713): as above
Procedure: In this latter study, triplicate samples of pre-fibrillized Aβ 1-42 (25 μM) was incubated at 37° C. for 3 days, alone or in the presence of the compounds or EDTA. Five micrograms of each sample was then filtered through a 0.2 μm filter. Protein recovered from the filtrate was then loaded, and ran on a 10-20% Tris-Tricine SDS-PAGE, blotted to nitrocellulose and detected using an Aβ-antibody (clone 6E10; Senetek).

Aβ 1-42 fibrils [5] = target: T2, Aβ 1-42 fibrils; assay: Congo red binding assay with Aβ 1-42 fibrils; settings: 3-day incubation
Procedure: as §2, with “a” for “a given”, “Aβ)” for “IAPP)”, “Aβ 1-42” for “IAPP”, “Aβ.” for “IAPP.”
In one study, the ability of Aβ fibrils to bind Congo red in the absence or presence of increasing amounts of the compounds or EDTA (at Aβ:test compound weight ratios of 1:1, 1:0.1, 1:0.01 or 1:0.001) was determined.

[6] = IAPP:test compound wt/wt ratio 1:0.001
[7] = IAPP:test compound wt/wt ratio 1:0.01
[8] = IAPP:test compound wt/wt ratio 1:0.1
[9] = IAPP:test compound wt/wt ratio 1:1
[10] = Aβ:test compound wt/wt ratio 1:0.001
[11] = Aβ:test compound wt/wt ratio 1:0.01
[12] = Aβ:test compound wt/wt ratio 1:0.1
[13] = Aβ:test compound wt/wt ratio 1:1

Structure (SMILES)	inhibition (IAPP fibrils [1]; [6]) [%]	inhibition (IAPP fibrils [1]; [7]) [%]	inhibition (IAPP fibrils [1]; [8]) [%]	inhibition (IAPP fibrils [1]; [9]) [%]	% Inhibition IAPP (result ± S.D.), Congo red binding (IAPP fibrils [2]; [6]) [%]	% Inhibition IAPP (result ± S.D.), Congo red binding (IAPP fibrils [2]; [7]) [%]	% Inhibition IAPP (result ± S.D.), Congo red binding (IAPP fibrils [2]; [8]) [%]	% Inhibition IAPP (result ± S.D.), Congo red binding (IAPP fibrils [2]; [9]) [%]	inhibition (Aβ 1-42 fibrils [3]; [10]) [%]	inhibition (Aβ 1-42 fibrils [3]; [11]) [%]	inhibition (Aβ 1-42 fibrils [3]; [12]) [%]	inhibition (Aβ 1-42 fibrils [3]; [13]) [%]	disruption of β-sheet structure in Aβ 1-42 fibrils (CD minima at 218 nm) (Aβ 1-42 fibrils [4])	dose-response of disruption of β-sheet structure of Aβ 1-42 fibrils (CD minima at 218 nm) (Aβ 1-42 fibrils [4])	detection of Aβ 1-42 monomers (~4 kilodalton band) on Western blot (monomeric Aβ 1-42)	further results
O=C(C=Cc1ccc(O)c(O)c1)NCc1ccc(O)c(O)c1 [Compound 61, 3,4-dihydroxycinnamic acid 3,4-dihydroxybenzylamide]	0.5 ± 6.33	35.4 ± 5.68	83.6 ± 1.27	96.8 ± 0.47	0.0 ± 3.87	4.0 ± 1.78	0.0 ± 7.07	23.7 ± 0.39	26 ± 7.51	16.9 ± 1.39	80.1 ± 4.76	100 ± 0.41	marked disruption of β-sheet structure	dose-dependent decrease in the minima		
Oc1ccc(CN[C@@H]2CCCC[C@H]2NCc2ccc(O)c(O)c2)cc1O (relative stereo) [Compound 12, N,N′-bis(3,4-dihydroxybenzyl)-trans-1,2-diaminocyclohexane]	13 ± 10.3	37.5 ± 0.76	86 ± 0.76	99.9 ± 0.19	0.0 ± 2.40	6.9 ± 2.45	8.3 ± 0.85	39.8 ± 0.26	0	10.8 ± 21.9	82 ± 1.13	99.7 ± 0.17	marked disruption of β-sheet structure	dose-dependent decrease in the minima		
O=C(NCCc1ccc(O)c(O)c1)Nc1ccc(O)c(O)c1 [Compound 78, 1-(3,4-dihydroxyphenyl)-3-(3,4-dihydroxyphenethyl)urea]	15.3 ± 4.73	58.3 ± 1.2	92.4 ± 0.27	99.5 ± 0.26	6.6 ± 3.04	19.9 ± 2.12	16.7 ± 6.80	56.3 ± 5.32	22.4 ± 5.63	57.8 ± 4.63	89.7 ± 1.8	100 ± 0.78	marked decrease in the minima		not detected	
CN1C2CCC1C(Cc1ccc(O)c(O)c1)C(=O)C2Cc1ccc(O)c(O)c1 (stereo not drawn) [Compound 19, 2,4-bis(3,4-dihydroxybenzyl)-3-tropinone]						6.0 ± 0.78	21.0 ± 3.70	49.3 ± 3.97							not detected	% Inhibition IAPP (result ± S.D.) (IAPP fibrils [1]; [6]): 16.7 ± 10.20%; % Inhibition IAPP (result ± S.D.) (IAPP fibrils [1]; [7]): 51.7 ± 2.98%; % Inhibition IAPP (result ± S.D.) (IAPP fibrils [1]; [8]): 94.0 ± 0.10%; % Inhibition IAPP (result ± S.D.) (IAPP fibrils [1]; [9]): 100.0 ± 0.24%; % Inhibition Aβ (result ± S.D.), Congo red binding (Aβ 1-42 fibrils [5]; [11]): 7.4 ± 2.20%; % Inhibition Aβ (result ± S.D.), Congo red binding (Aβ 1-42 fibrils [5]; [12]): 22.4 ± 2.19%; % Inhibition Aβ (result ± S.D.), Congo red binding (Aβ 1-42 fibrils [5]; [13]): 48.1 ± 2.00%; % Inhibition Aβ (result ± S.D.) (Aβ 1-42 fibrils [3]; [10]): 10.8 ± 1.38%; % Inhibition Aβ (result ± S.D.) (Aβ 1-42 fibrils [3]; [11]): 46.2 ± 2.98%; % Inhibition Aβ (result ± S.D.) (Aβ 1-42 fibrils [3]; [12]): 91.1 ± 0.66%; % Inhibition Aβ (result ± S.D.) (Aβ 1-42 fibrils [3]; [13]): 99.1 ± 0.56%
